Source: patent publication US11130741B2 (Bioimics AB, priority 2016, dated 2021)
≈ marks a conversion by molar mass, not a printed value. Where two headings read alike, the source gives them in different places.

Assays:
[1] = test system: E. coli RNase P RNA, M1 RNA; assay: Inhibition of bacterial RNase P activity, IC50 determination (cleavage of pATSerUG by M1 RNA); type: biochemical; settings: NI = No inhibition
[2] = test system: Staphylococcus aureus subsp. aureus (ATCC29213); assay: MIC, broth microdilution (CLSI), Staphylococcus aureus subsp. aureus ATCC29213; type: cell-based
E. coli JW5503 = assay: MIC, E. coli JW5503; type: cell-based; settings: Escherichia coli, JW5503, read-out: MIC E. coli JW5503
A. baumannii ATCC 17978 = assay: MIC, A. baumannii ATCC 17978; type: cell-based; settings: Acinetobacter baumannii, ATCC17978
H. influenzae ATCC 49247 = assay: MIC, H. influenzae ATCC 49247; type: cell-based; settings: Haemophilus influenzae, ATCC49247
[3] = test system: Staphylococcus aureus (ATCC25923); assay: MIC, broth microdilution (CLSI), Staphylococcus aureus ATCC25923; settings: ATCC25923, read-out: S. aureus ("Clinical") MIC
Protocol: (§1) Initial minimal inhibitory concentration (MIC) tests were made on two bacterial strains: • Escherichia coli (ATCC25922) • Staphylococcus aureus (ATCC25923).
Minimal Inhibitory Concentration (MIC)
(§2) MIC values were determined using the standard broth microdilution procedure based on the guidelines by the Clinical and Laboratory Standards Institute (CLSI). Briefly, the compounds were dissolved in DMSO to 10 mM. They were diluted in cation-adjusted Mueller-Hinton broth (CAMHB) to four times the highest concentration tested. A serial 2-fold dilution in CAMHB was done in microdilution plates. The inoculum of bacterial strain to be tested was prepared by making a suspension of colonies from an 18 to 24 hours old plate in CAMHB. The inoculum was diluted so that, after inoculation, each well contained approximately 5×10^5 CFU/mL. To a volume of 50 μl compound in CAMHB an equal volume of inoculum was added. The tray was sealed in a plastic bag and incubated at 35° C. for 16 to 20 hours. To aid in the detection of growth the dye resazurin was added to a final concentration 0.001% and incubated at room temperature for 1 h. Reduction of resazurin, and therefore bacterial growth, was seen as a change from blue to pink.

[4] = test system: S. aureus MRSA ATCC 33591; assay: MIC, S. aureus MRSA ATCC 33591; type: cell-based; settings: Staphylococcus aureus; read-out: MIC S. aureus MRSA ATCC 33591
S. pneumoniae ATCC 49619 = assay: MIC, S. pneumoniae ATCC 49619; type: cell-based; settings: Streptococcus pneumoniae, ATCC49619
[5] = test system: Pseudomonas aeruginosa (ATCC27853); assay: microbe, parasite or virus in culture; type: cell-based; settings: read-out: MIC P. aeruginosa ATCC 27853
N. gonorrhoeae 612501 = assay: MIC, N. gonorrhoeae 612501; type: cell-based; settings: Neisseria gonorrhoeae
[6] = test system: Escherichia coli (ATCC25922); assay: MIC, broth microdilution (CLSI), Escherichia coli ATCC25922
Protocol: as §1
Minimal Inhibitory Concentration (MIC)
as §2

[7] = test system: Enterococcus faecalis (ATCC29212); assay: MIC, broth microdilution (CLSI), Enterococcus faecalis ATCC29212; type: cell-based; settings: read-out: MIC E. faecalis ATCC 29212
K. pneumoniae ATCC 43816 = assay: MIC, K. pneumoniae ATCC 43816; type: cell-based; settings: Klebsiella pneumoniae, ATCC43816
S. aureus ATCC 29213 = assay: MIC, S. aureus ATCC 29213 + 50% HS; type: cell-based; settings: Staphylococcus aureus, ATCC29213
E. faecium ATCC 700221 = assay: MIC, E. faecium ATCC 700221; type: cell-based; settings: Enterococcus faecium, ATCC700221; read-out: MIC E. faecium ATCC 700221
[8] = test system: P. aeruginosa NTUH-974 (MDR); assay: MIC, P. aeruginosa NTUH-974 (MDR); type: cell-based
[9] = ATCC29213, Table 15, read-out: S. aureus ("wound") (MIC)
[10] = ATCC29213, Table 16, read-out: MIC S. aureus ATCC 29213
[11] = ATCC25922, read-out: E. coli MIC, Table 15, NI = No inhibition
[12] = Pseudomonas aeruginosa, read-out: MIC P. aeruginosa NTUH-974 (MDR)
[13] = ATCC25922, read-out: MIC E. coli ATCC 25922, Table 16

Compound	IC50 [1] [µM]	MIC [2, 9] [µg/mL]	MIC [2, 10] [µg/mL]	MIC (E. coli JW5503) [µg/mL]	MIC (A. baumannii ATCC 17978) [µg/mL]	MIC (H. influenzae ATCC 49247) [µg/mL]	MIC [3] [µg/mL]	MIC [4] [µg/mL]	MIC (S. pneumoniae ATCC 49619) [µg/mL]	MIC [5] [µg/mL]	MIC (N. gonorrhoeae 612501) [µg/mL]	MIC [6, 11] [µg/mL]	MIC ([6]; ATCC25922, read-out: MIC E. coli ATCC 25922) [µg/mL]	MIC [7] [µg/mL]	MIC (K. pneumoniae ATCC 43816) [µg/mL]	MIC (S. aureus ATCC 29213) [µg/mL]	MIC (E. faecium ATCC 700221) [µg/mL]	MIC [8, 12] [µg/mL]	MIC [6, 13] [µg/mL]	MIC ([8]; Pseudomonas aeruginosa; read-out: MIC P. aeruginosa NTUH-974 (MDR)) [µg/mL]
CN(C)CCCN1c2ccccc2Sc2cc(-c3cc4cc(C#N)ccc4[nH]3)ccc21 [compound 123, 2-(10-(3-(dimethylamino)propyl)-10H-phenothiazin-3-yl)-1H-indole-5-carbonitrile]	> 100	2 (≈ 4.71 µM)	2 (≈ 4.71 µM)	4 (≈ 9.42 µM)	64 (≈ 151 µM)	16 (≈ 37.7 µM)	2 (≈ 4.71 µM)	8 (≈ 18.8 µM)	8 (≈ 18.8 µM)	> 128	1 (≈ 2.36 µM)	> 100	> 128	2 (≈ 4.71 µM)	> 128	64	2 (≈ 4.71 µM)	> 128		
NCCN1CCC(Nc2cc(C(F)(F)F)cc3c2Nc2ccccc2S3)CC1 [compound 140, N-(1-(2-Aminoethyl)piperidin-4-yl)-3-(trifluoromethyl)-10H-phenothiazin-1-amine]	8	8 (≈ 19.6 µM)	4 (≈ 9.79 µM)	8 (≈ 19.6 µM)	8 (≈ 19.6 µM)	8 (≈ 19.6 µM)	3 (≈ 7.34 µM)	4 (≈ 9.79 µM)	32 (≈ 78.3 µM)	64 (≈ 157 µM)	2 (≈ 4.9 µM)	7 (≈ 17.1 µM)		4 (≈ 9.79 µM)	8 (≈ 19.6 µM)	128	4 (≈ 9.79 µM)		32 (≈ 78.3 µM)	32 (≈ 78.3 µM)
NCCCN1c2ccccc2Sc2cc(-c3cc4ccccc4[nH]3)ccc21 [compound 150, 3-(3-(1H-Indol-2-yl)-10H-phenothiazin-10-yl)propan-1-amine]	14		2 (≈ 5.38 µM)	4 (≈ 10.8 µM)	16 (≈ 43.1 µM)	8 (≈ 21.5 µM)	1 (≈ 2.69 µM)	2 (≈ 5.38 µM)	8 (≈ 21.5 µM)	> 128	2 (≈ 5.38 µM)	12 (≈ 32.3 µM)		2 (≈ 5.38 µM)	16 (≈ 43.1 µM)	64	2 (≈ 5.38 µM)	> 128	16 (≈ 43.1 µM)	
CNCCCN1c2ccccc2Sc2cc(-c3cc4ccccc4[nH]3)ccc21 [compound 186, 3-(3-(1H-indol-2-yl)-10H-phenothiazin-10-yl)-N-methylpropan-1-amine]	30		4 (≈ 10.4 µM)	4 (≈ 10.4 µM)	16 (≈ 41.5 µM)	16 (≈ 41.5 µM)	2 (≈ 5.19 µM)	8 (≈ 20.8 µM)	32 (≈ 83 µM)	> 128	4 (≈ 10.4 µM)	99 (≈ 257 µM)		4 (≈ 10.4 µM)	128 (≈ 332 µM)	64	4 (≈ 10.4 µM)	> 128	16 (≈ 41.5 µM)	
CN(C)CCCN1c2ccccc2Sc2cc(-c3cc4ccccc4[nH]3)ccc21 [compound 111, 3-(3-(1H-Indol-2-yl)-10H-phenothiazin-10-yl)-N,N-dimethylpropan-1-amine]	~20	3 (≈ 7.51 µM)	2 (≈ 5.01 µM)	4 (≈ 10 µM)	64 (≈ 160 µM)	16 (≈ 40 µM)	3 (≈ 7.51 µM)	4 (≈ 10 µM)	8 (≈ 20 µM)	> 128	2 (≈ 5.01 µM)	> 100		4 (≈ 10 µM)	> 128	128	2 (≈ 5.01 µM)	> 128	64 (≈ 160 µM)	
CC(C)NCCCN1c2ccccc2Sc2cc(-c3cc4ccccc4[nH]3)ccc21 [compound 197, 3-(3-(1H-indol-2-yl)-10H-phenothiazin-10-yl)-N-isopropylpropan-1-amine]	25	4 (≈ 9.67 µM)	2 (≈ 4.84 µM)	4 (≈ 9.67 µM)	64 (≈ 155 µM)	16 (≈ 38.7 µM)	6 (≈ 14.5 µM)	16 (≈ 38.7 µM)	4 (≈ 9.67 µM)	> 128	1 (≈ 2.42 µM)			2 (≈ 4.84 µM)	> 128	128	2 (≈ 4.84 µM)	> 128	64 (≈ 155 µM)	
